pEC50: −log10 of the molar value.
Key:
[1] = Clearance in human liver microsomes; assay type: in vitro ADME; conditions: hepatic extraction ratio; test compound 0.5 μM, microsomes 0.5 mg/mL, NADPH 1 mM, 37° C.
Protocol: Test compound concentration is 0.5 μM, microsome concentration is 0.5 mg/mL and NADPH concentration is 1 mM in the incubation. The described method is performed by the liquid handling system Tecan RSP and is based on a 96-well format.
Control incubations with test compound without NADPH and test compound without microsomes are conducted to investigate non-CYP mediated metabolism and stability in phosphate buffer at 37° C., respectively.
The human liver microsomal suspension in phosphate buffer is mixed with NADPH. The mixture is pre-heated (7 min) to 37° C. Test compound is added, and the mixture is incubated for 30 minutes. Incubations are run in duplicate. Samples are withdrawn at predetermined stop times and mixed with methanol containing internal standard (IS) to terminate all enzyme activity and precipitate proteins. A control without NADPH (to detect problems such as nonspecific protein binding, heat instability or non-CYP mediated metabolism) and a control without microsomes (for assessing compound stability in the absence of any active enzymes) are tested.
The percentage of organic solvent in the incubations is less than 1%. Careful inspections of reagents are performed prior to the start of any experiment to ensure all reagents are in solution.
The 96-well plates are centrifuged. Test compound depletion, using a compound specific LC/MS/MS method, is determined.
The logarithm of the peak area ratios of test compound to internal standard (IS) versus incubation time is plotted in a graph.
The rate constant (k) (min^−1) of test compound depletion is calculated from the linear part of the curve and the half-time (t1/2) in minutes can be calculated from the rate constant (Eq. 2).
Intrinsic clearance (CIint) (mL/min/mg protein) is calculated from: […]
where c is the microsomal protein concentration in mg/mL.
Conversion to apparent clearance (CIapp) (mL/min/kg) is done by Eq. 4:
CIapp=CIint×a×b/d (Eq. 4)
where a, b and d are the scaling factors for normalizing CIint to human body weight.
a: 45 (microsomal protein/liver weight (mg/g))
b: 1500 (liver weight (g))
Hepatic clearance (CIh) (mL/min/kg) based on the well-stirred model is described as followed:
CIh=(CIapp·Q)/(CIapp+Q) (Eq. 5)
where Q is the liver blood flow in mL/min/kg (20 in humans).
Dividing hepatic clearance with liver blood flow, the hepatic extraction ratio (%) can be calculated:
Apparent clearance below approximately 10 mL/min/kg human body weight (corresponding to extraction ratio of approx. 33%) is considered as low clearance (high metabolic stability). Apparent intrinsic clearance above approximately 60 mL/min/kg human body weight (corresponding to extraction ratio of approx. 75%) is considered as high clearance (low metabolic stability).

[2] = biological target: T1, human CaSR (Homo sapiens, UniProt P41180); experiment: Functional whole cell assay (modulation of human CaSR), IP1 accumulation in CHO-K1 cells; assay type: cell-based; conditions: CHO-K1 cells stably expressing human CaSR, final Ca2+ 1.9 mM, IP1 readout; concentration producing 50% of maximum agonistic response
T1 sequence (P41180 20-1078): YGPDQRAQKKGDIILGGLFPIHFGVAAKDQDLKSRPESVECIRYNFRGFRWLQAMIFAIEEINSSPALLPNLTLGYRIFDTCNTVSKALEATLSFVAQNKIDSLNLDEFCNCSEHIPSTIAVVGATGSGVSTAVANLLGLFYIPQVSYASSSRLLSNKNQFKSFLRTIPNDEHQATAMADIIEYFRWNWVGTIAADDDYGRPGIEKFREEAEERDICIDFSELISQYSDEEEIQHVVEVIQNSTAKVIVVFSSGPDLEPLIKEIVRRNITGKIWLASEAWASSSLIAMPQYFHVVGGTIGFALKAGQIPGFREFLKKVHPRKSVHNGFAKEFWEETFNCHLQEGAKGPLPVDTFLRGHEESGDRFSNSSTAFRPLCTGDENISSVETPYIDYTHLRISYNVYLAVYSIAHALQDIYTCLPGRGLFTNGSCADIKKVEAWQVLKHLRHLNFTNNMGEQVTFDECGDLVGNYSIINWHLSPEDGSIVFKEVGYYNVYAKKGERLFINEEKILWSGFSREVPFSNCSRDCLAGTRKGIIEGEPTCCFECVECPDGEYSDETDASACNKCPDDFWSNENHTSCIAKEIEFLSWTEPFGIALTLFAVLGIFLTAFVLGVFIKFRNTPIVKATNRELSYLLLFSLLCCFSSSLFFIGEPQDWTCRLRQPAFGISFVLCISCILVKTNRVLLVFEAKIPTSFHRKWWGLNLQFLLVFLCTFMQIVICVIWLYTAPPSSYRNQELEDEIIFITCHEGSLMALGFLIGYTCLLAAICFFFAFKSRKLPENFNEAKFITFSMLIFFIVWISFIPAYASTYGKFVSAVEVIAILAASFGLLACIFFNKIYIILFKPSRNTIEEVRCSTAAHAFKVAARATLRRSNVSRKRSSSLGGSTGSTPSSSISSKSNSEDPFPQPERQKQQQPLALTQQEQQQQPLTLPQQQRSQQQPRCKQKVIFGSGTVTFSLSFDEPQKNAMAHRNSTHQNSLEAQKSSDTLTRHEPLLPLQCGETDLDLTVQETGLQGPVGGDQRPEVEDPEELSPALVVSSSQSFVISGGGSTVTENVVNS
From the text: The assay investigates a compound's functional ability to act as a biological positive modulator on the human CaSR. Activation of the receptor expressed on CHO-K1 cells is detected through the G alpha q pathway, the activation of phospholipase C and the accumulation of intracellular inositol phosphate (IP) as described earlier [Sandrine Ferry, Bruno Chatel, Robert H. Dodd, Christine Lair, Danielle Gully, Jean-Pierre Maffrand, and Martial Ruat. Effects of Divalent Cations and of a Calcimimetic on Adrenocorticotropic Hormone Release in Pituitary Tumor Cells. Biochemical and biophysical research Communications 238, 866-873 (1997)]. The human CaSR is stably expressed on a CHO-K1 cell clone, stimulated with a basal level of calcium and challenged with the tested compound. The level of IP1 is determined using the IP-One Terbium htrf kit (Cisbio, France). CHO-K1 cells not transfected with the CaSR fail to elicit an IP1 response upon calcium and/or compound stimulation.
The ORF coding for the human CaSR (genebank: NM_000388) was acquired from Invitrogen Corp, USA and subsequently cloned into the mammalian expression vector pCDA3.1.
CHO-K1 cells were transfected using Lipofectamine according to manufacturer's protocol (400.000 cells/well were seeded in a 6-well plate and transfected after 24 hours using 2 μg DNA and 5 μl lipofectamine). After another 24 hours the cells were detached, seeded and subjected to 1 mg/ml of G-418. Following 7 days growth single clones were picked, the CaSR expression evaluated using the 5C10 antibody against CaSR, the clones with the highest expression were selected and tested for functional response. The preferred clone was cultured according to standard procedures described in ATCC (American Type Culture Collection) protocols for CHO-K1 with the addition of 500 μg/ml G-418.
On the assay day, cells were thawed, harvested and resuspended to 4*10^6 cells/ml in stimulation buffer (containing: Hepes 10 mM, MgCl2 0.5 mM, KCl 4.2 mM, NaCl 146 mM, glucose 5.5 mM, LiCl 50 mM, BSA 0.5% at pH 7.4). Ten μl cell solution was pipetted into wells of a white 384-well plate (Perkin Elmer Optiplate) containing 2 μl compound diluted in assay buffer (containing: Hepes 10 mM, MgCl2 0.5 mM, KCl 4.2 mM, NaCl 146 mM, glucose 5.5 mM, LiCl 50 mM, CaCl2 11.4 mM at pH 7.4), resulting in a final Ca^2+ concentration of 1.9 mM. After compound stimulation for 1 hour at 37° C. and 15 min at room temperature, 10 ul of IP-One assay detection reagent (prepared as described by the IP-One assay kit manufacturer) was added and the plate was incubated for another 1 hour at room temperature. Finally the plate was read using a Perkin Elmer EnVision, according to the protocol supplied by the IP-One assay kit manufacturer. The FRET ratio was calculated by dividing the 665 nm emission signal with that of the 615 nm.
The molar concentration of a compound that produces 50% of the maximum agonistic response (the […] value) is calculated according to the equation “General sigmoidal curve with Hill slope, a to d” (Equation 1). This model describes a sigmoidal curve with an adjustable baseline. The equation can be used to fit curves where response is either increasing or decreasing with respect to the independent variable, X. […]
y=(a−d)/(1+(x/c)̂b)+d Equation 1 x=concentration of tested compound […]
a=min response as compound concentration approaches 0 d=max response as concentration of tested compound is increasing […]
b=Hill coefficient or curve slope

Clearance (% Eh) in human liver microsomes [1]: A (A: Eh < 33%)
pEC50 [2]: 6.00 to 6.70
Compound: C[C@@H](N[C@H]1CC[C@@H](c2ccc(OCC(=O)NC3CCNCC3)cc2)C1)c1cccc(Cl)c1 [Compound 102, 2-[4-[(1R,3S)-3-[[(1R)-1-(3-Chlorophenyl)ethyl]amino]-cyclopentyl]-phenoxy]-N-(4-piperidyl)-acetamide]

Source: patent US20130261132A1, “CALCIUM-SENSING RECEPTOR-ACTIVE COMPOUNDS” (LEO PHARMA A/S, priority 2010, published 2013)
